Test results reported in patent publication US6914158B2, “Amidino compounds useful as nitric oxide synthase inhibitors” (Pharmacia Corporation, priority 2000, dated 2005).
Counter-ions that a name gives are not always drawn.

Molecular target: T1, iNOS in human cartilage explants (Homo sapiens, UniProt P35228)
T1 construct: from tissue; host or cells: human cartilage explants stimulated with recombinant human IL-1β
Test: Human cartilage explant assay (IL-1β-induced nitrite production)
Type: cell-based
Settings: inhibition of nitrite production, IL-1β-stimulated explants; averages across all experiments and all lots

IC50 | SMILES
700 nM | CC(=N)NCCSC[C@](C)(N)C(=O)O [Example 1, S-[2-[(1-Iminoethyl)amino]ethyl]-2-methyl-L-cysteine, dihydrochloride]
700 nM | CC(=N)NCCSCC(C)(N)C(=O)O (stereo not drawn) [Example 16, S-[2-(1-Iminoethylamino)ethyl]-2-methyl-(D/L)-cysteine, bistrifluoroacetate]
